Patent publication US9068166B2, “Use of compounds for inducing differentiation of mesenchymal stem cells to chondrocytes” (Industry-Academic Cooperation Foundation Yonsei University, priority 2010, dated 2015)

What was measured:
ERK = test: Western blotting of ERK phosphorylation in treated mesenchymal stem cells; type: cell-based, human; conditions: FIG. 3
Procedure: 60 cc of an expanding solution (obtained by adding 30 mL of 1% lidocaine, 30 mL of 0.5% bupivacaine, 10 mL of 4.2% sodium bicarbonate and 1 mg of epinephrine to 1 L of normal water for injection) was applied to the periphery of a navel under sterile conditions. Fats were suctioned using Mercedes 3 mm×9 cm Aspiration Luer Lock Cannula (Byron Medical, Tucson, Ariz.), and then instantly kept on ice. Since a lipoaspirate filtered through a 250 mm sieve included an anesthetic and a contaminant such as blood, the lipoaspirate was washed with phosphate buffered saline (PBS) to remove the anesthetic and the contaminant. […]
Cells were washed once with PBS, and lysed for approximately 20 minutes in a lysis buffer (Cell Signaling Technology) containing 20 mM Tris (pH 7.5), 150 mM NaCl, 1 mM Na2-EDTA, 1 mM EGTA, 1% Triton, 2.5 mM sodium pyrophosphate, 1 mM β-glycerophosphate, 1 mM Na3VO4, 1 mg/ml leupeptin and 1 mM phenylmethylsulfonyl fluoride. […] A concentration of proteins was measured using a Bradford protein assay kit (Bio-Rad). A quantitative protein was separated on a 12% sodium dodecyl sulfate-polyacrylamide gel, and transferred to a polyvinylidene difluoride membrane (Millipore). […] After thorough washing, a band was detected using an improved chemiluminogenic reagent (GE Healthcare Life Sciences). The intensity of the band was quantified using an Image J 1.40 g software (NIH).

[1] = test system: human adipose tissue-derived mesenchymal stem cells; test: Sandwich ELISA of aggrecan expression (chondrocyte marker) in treated mesenchymal stem cells; type: cell-based; conditions: for induction of differentiation of mesenchymal stem cells to chondrocytes (aggrecan expression) compared with A1942: sandwich ELISA, p<0.001 vs. control, FIG. 5
Procedure: (§1) 60 cc of an expanding solution (obtained by adding 30 mL of 1% lidocaine, 30 mL of 0.5% bupivacaine, 10 mL of 4.2% sodium bicarbonate and 1 mg of epinephrine to 1 L of normal water for injection) was applied to the periphery of a navel under sterile conditions. Fats were suctioned using Mercedes 3 mm×9 cm Aspiration Luer Lock Cannula (Byron Medical, Tucson, Ariz.), and then instantly kept on ice. Since a lipoaspirate filtered through a 250 mm sieve included an anesthetic and a contaminant such as blood, the lipoaspirate was washed with phosphate buffered saline (PBS) to remove the anesthetic and the contaminant. Collagenase I (1 mg/mL; Worthington Biochemical Corp., Lakewood, N.J.) was added to the obtained fat tissues, stirred, and then kept at 37° C. for an hour. The suspended adipose tissues were centrifuged at 1,500×g for 10 minutes, and a supernatant containing matured fat cells was discarded. The obtained stroma vascular (SV) cells were washed with 0.1% BSA, suspended in an M-199 medium (including 12.8% fetal bovine serum, heparin, 10,000 U/mL penicillin G, 25 mg/mL amphotericin B, and 10,000 mg/mL streptomycin), plated on a gelatin-coated tissue culture flask, and then incubated. After 24 hours, the tissue culture flask was washed to remove non-attached cells, and the incubation was continued.
[…] In this case, the mesenchymal stem cells were incubated for 11 days while replacing a medium including the compound of Formula 1 with a fresh one once every 3 days.
A capture antibody was bound to the bottom of each well, and the plate was then incubated overnight at 4° C. The plate was washed twice with PBS (Gibco), and treated with 100 μl of PBS containing 3% BSA at room temperature for 2 to 3 hours. The plate was washed twice with PBS, and a cell lysate was added to each well. Then, the plate was incubated at room temperature for 2 hours under a wet atmosphere. The plate was washed four times with PBS containing 0.02% Tween-20 (Sigma). A detector antibody was added to the plate, and the plate was then incubated at room temperature for 2 hours under a wet atmosphere. Thereafter, the plate was incubated with a peroxidase-conjugated secondary antibody at 37° C. for an hour. Finally, the plate was treated with 100 μl of a tetramethylbenzidine (TMB) solution (Sigma) as a substrate, and 25 μl of 0.1 M H2SO4 was added as a terminating buffer to stop the reaction. Immediately after the reaction, the absorbance was measured at 450 nm using an ELISA plate reader (Bio-Rad).

[2] = test system: human adipose tissue-derived mesenchymal stem cells; test: Alcian Blue dyeing of sulfated proteoglycan (quantified chondrogenesis); type: cell-based; conditions: 1 μM, 11 days, optical density at 650 nm, p<0.05 vs. control, FIG. 1
Procedure: as §1, with “The obtained stroma vascular (SV) cells were washed with 0.1% BSA, suspended in an M-199 medium (including 12.8% fetal bovine serum, heparin, 10,000 U/mL penicillin G, 25 mg/mL amphotericin B, and 10,000 mg/mL streptomycin), plated on a gelatin-coated tissue culture flask, and then incubated. After 24 hours, the tissue culture flask was washed to remove non-attached cells, and the incubation was continued.” left out
Cells were first washed three times with PBS (Gibco), and then immobilized with 100% methanol (Sigma) at −20° C. for 10 minutes. […] To quantify the dyeing intensity, the dyed culture plate was washed three times with PBS, and each well was extracted with 1 ml of 6 M guanidine-HCl (Sigma) overnight at room temperature. The optical density of the extracted dye was measured at 650 nm.

[3] = test system: fibronectin, α5-integrin, N-cadherin; test: Semi-quantitative RT-PCR of fibronectin, integrin α5β1 and N-cadherin in treated mesenchymal stem cells; type: cell-based, human; conditions: 1 μM for 11 days, normalized to GAPDH, FIG. 4
Procedure: as §1
When the mesenchymal stem cells were subcultured twice, the mesenchymal stem cells were seeded at a density of 2×10^5 cells/ml in a 60 mm plate containing the same medium as described above, and treated with the compound of Formula 1 (each of the compounds of Examples 1 to 28) at a final concentration of 10 nM, 100 nM, 1 μM, or 10 μM. In this case, the mesenchymal stem cells were incubated for 11 days while replacing a medium including the compound of Formula 1 with a fresh one once every 3 days.
Expression levels of various genes were analyzed through an RT-PCR method. Total RNA was obtained using an Ultraspect™-II RNA system (Biotecx Laboratories, Inc., USA) and an easy-BLUE™ kit (Intron Biotechnology, Seoul, South Korea). […]

O=S(=O)(Nc1ccc(O)cc1)c1cccc2cccnc12 [Compound A1942, Quinoline-8-sulfonic acid (4-hydroxy-phenyl)-amide]
phosphorylation level of ERK (ERK; 1 μM for 11 days): increased with time | expression level of aggrecan ([1]; 0.1, 0.5 and 1 μM for 11 days, FIG. 2): increased in a dose-dependent manner | relative absorbance (Alcian Blue) versus control [2]: approximately 3 times | expression level of N-cadherin [3]: decreased with time | expression level of fibronectin [3]: decreased with time | expression level of α5-integrin [3]: decreased with time

O=S(=O)(Nc1cccc2ccc(O)cc12)c1cccc2cccnc12 [Compound A1943, Quinoline-8-sulfonic acid (7-hydroxy-naphthalen-1-yl)-amide]
induction of differentiation of mesenchymal stem cells to chondrocytes (aggrecan expression) compared with A1942 [1]: at a level similar to the A1942 compound

O=C(O)c1cc(NS(=O)(=O)c2cccc3cccnc23)ccc1O [Compound A1944, 2-Hydroxy-5-(quinoline-8-sulfonylamino)-benzoic acid]
induction of differentiation of mesenchymal stem cells to chondrocytes (aggrecan expression) compared with A1942 [1]: at a level similar to the A1942 compound

CC(C)(C)c1ccc(S(=O)(=O)Nc2ccc(O)c(C(=O)O)c2)cc1 [Compound A1948, 5-(4-Tert-butyl-benzenesulfonyl-amino)-2-hydroxy-benzoic acid]
induction of differentiation of mesenchymal stem cells to chondrocytes (aggrecan expression) compared with A1942 [1]: at a level similar to the A1942 compound

O=S(=O)(Nc1cccc2c(O)cccc12)c1ccc(-c2ccccc2)cc1 [Compound A1949, Biphenyl-4-sulfonic acid (5-hydroxy-naphthalen-1-yl)-amide]
induction of differentiation of mesenchymal stem cells to chondrocytes (aggrecan expression) compared with A1942 [1]: at a level similar to the A1942 compound

Cc1ccc(S(=O)(=O)Nc2ccc(O)c3ccccc23)cc1 [Compound A1950, N-(4-hydroxy-naphthalen-1-yl)-4-methyl-benzenesulfonamide]
induction of differentiation of mesenchymal stem cells to chondrocytes (aggrecan expression) compared with A1942 [1]: at a level similar to the A1942 compound

N#CC(=C(/N)Sc1ccccc1N)/C(C#N)=C(\N)Sc1ccccc1N [Compound U0126, reference compound]
phosphorylation level of ERK, group treated with A1942 and U0126 (ERK; A1942 1 μM plus U0126, 11 days): did not increase with time | expression level of aggrecan, co-treatment with A1942 ([1]; mesenchymal stem cells treated with 1 μM A1942 + U0126, FIG. 2): reduced an expression level of the aggrecan
